# Measured values as given in ChEMBL document CHEMBL1201862, “PubChem BioAssay data set” (2004).
# Where “and” joins values, the source holds several entries; their conditions need not be identical. Equal entries are not always repeated.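 Cultured in 96-well plates, cells were exposed to test compound for 48 hours across five concentrations. Abbreviation: GI50, concentration required for 50% inhibition of growth.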 Calls of active or inactive are those of the source. Rule as the data show it: active = GI50 up to about 1.1 µM and inactive = higher.
# How the values were obtained:
# Assay in all cases: DTP human tumour cell line panel, 48 h
# [1] = system: A549
# [2] = system: HCC 2998
# [3] = system: KM12
# [4] = system: LOX IMVI
# [5] = system: MOLT-4
# [6] = system: Malme-3M
# [7] = system: NCI-H522
# [8] = system: NCI/ADR-RES
# [9] = system: OVCAR-8
# [10] = system: SF-295
# [11] = system: SK-MEL-28
# [12] = system: SK-MEL-5
# [13] = system: SNB-19
# [14] = system: UACC-257
# [15] = system: UACC-62
# [16] = system: A498
# [17] = system: CAKI-1
# [18] = system: OVCAR-4
# [19] = system: SK-OV-3
Structure (SMILES),GI50 [1],GI50 [2],GI50 [3],GI50 [4],GI50 [5],GI50 [6],GI50 [7],GI50 [8],GI50 [9],GI50 [10],GI50 [11],GI50 [12],GI50 [13],GI50 [14],GI50 [15],GI50 [16],GI50 [17],GI50 [18],GI50 [19]
CN(C)c1ccc(C(N)=O)cn1,> 100 µM (inactive),> 100 µM (inactive),> 100 µM (inactive),> 100 µM (inactive),> 100 µM (inactive),> 100 µM (inactive),> 100 µM (inactive),> 100 µM (inactive),> 100 µM (inactive),> 100 µM (inactive),> 100 µM (inactive),> 100 µM (inactive),> 100 µM (inactive),> 100 µM (inactive),> 100 µM (inactive),–,–,–,–
CCCCCC/C=C\CCCCCCCCCc1c(O)c(OC)cc(O)c1CN(C)C,4.04 µM (inactive),–,3.34 µM (inactive),3.2 µM (inactive),1.69 µM (inactive),–,1.64 µM (inactive),5.89 µM (inactive),4.06 µM (inactive),5.38 µM (inactive),13.2 µM (inactive),5.41 µM (inactive),12.9 µM (inactive),11.4 µM (inactive),10.6 µM (inactive),17 µM (inactive),13.8 µM (inactive),1.47 µM (inactive),14.9 µM (inactive)
Nc1ccccc1C#CC(=O)c1cccc(C(F)(F)F)c1,16.8 µM (inactive),–,13.9 µM (inactive),1.46 µM (inactive),2.55 µM (inactive),6.1 µM (inactive),1.09 µM (active),4.89 µM (inactive),–,15.7 µM (inactive),–,2.35 µM (inactive),14.5 µM (inactive),15.7 µM (inactive),1.86 µM (inactive),18.5 µM (inactive),3.21 µM (inactive),2.22 µM (inactive),15.3 µM (inactive)
N#C/C(=C\c1ccc(F)cc1)c1nc(-c2cc3ccccc3oc2=O)cs1,55.5 µM (inactive),37.7 µM (inactive),59 µM (inactive),87.7 µM (inactive),> 100 µM (inactive),15.7 µM (inactive),17.9 µM (inactive),30.9 µM (inactive),21.3 µM (inactive),14 µM (inactive),44.7 µM (inactive),15.3 µM (inactive),11.8 µM (inactive),20.7 µM (inactive),15 µM (inactive),–,53.6 µM (inactive),10.4 µM (inactive),20.4 µM (inactive)
Cn1c(Nc2ccccc2)c(/C=N\c2ccccc2)c(=O)n(C)c1=O,> 100 µM (inactive),–,97.7 µM (inactive),36.4 µM (inactive),61.5 µM (inactive),–,–,41 µM (inactive),39.7 µM (inactive),89.5 µM (inactive),> 100 µM (inactive),–,–,> 100 µM (inactive),> 100 µM (inactive),80 µM (inactive),–,> 100 µM (inactive),62.1 µM (inactive)
O=c1ccn(Cc2ccccc2CCl)c(=O)[nH]1,47.8 µM (inactive),22.7 µM (inactive),26.5 µM (inactive),–,40.6 µM (inactive),20.2 µM (inactive),20.4 µM (inactive),22.1 µM (inactive),25.9 µM (inactive),23.3 µM (inactive),33.8 µM (inactive),3 µM (inactive),33.3 µM (inactive),25.8 µM (inactive),26.9 µM (inactive),–,25 µM (inactive),69.7 µM (inactive),46.5 µM (inactive)
O=c1c2ccc(S(=O)(=O)c3ccc4c(=O)n5c6ccccc6nc5c5cccc3c45)c3cccc(c32)c2nc3ccccc3n12,> 100 µM (inactive),> 100 µM (inactive),> 100 µM (inactive),> 100 µM (inactive),–,> 100 µM (inactive),27.7 µM (inactive),> 100 µM (inactive),47.9 µM (inactive),15.3 µM (inactive),> 100 µM (inactive),> 100 µM (inactive),16.6 µM (inactive),> 100 µM (inactive),45.5 µM (inactive),–,> 100 µM (inactive),–,5.26 µM (inactive)
O=C(O)/C(Cl)=C(\Cl)C(=O)c1ccccc1,> 100 µM (inactive),> 100 µM (inactive),> 100 µM (inactive),> 100 µM (inactive),> 100 µM (inactive),> 100 µM (inactive),> 100 µM (inactive),–,> 100 µM (inactive),> 100 µM (inactive),> 100 µM (inactive),> 100 µM (inactive),> 100 µM (inactive),> 100 µM (inactive),> 100 µM (inactive),> 100 µM (inactive),> 100 µM (inactive),> 100 µM (inactive),> 100 µM (inactive)
COc1ccc(-c2nc(SC)n(C3OC(COC(C)=O)C(OC(C)=O)C(OC(C)=O)C3OC(C)=O)c(=O)c2C#N)cc1 (configuration not stated),59 µM (inactive),> 100 µM (inactive),> 100 µM (inactive),56.4 µM (inactive),68.4 µM (inactive),65.6 µM (inactive),–,79.8 µM (inactive),79.3 µM (inactive),–,> 100 µM (inactive) and 72.1 µM (inactive),> 100 µM (inactive),–,> 100 µM (inactive),–,–,> 100 µM (inactive),–,–
CNCCN[C@@H]1c2cc3c(cc2[C@@H](c2cc(OC)c(O)c(OC)c2)[C@H]2C(=O)OC[C@@H]21)OCO3,0.0708 µM (active),0.474 µM (active),0.406 µM (active),0.153 µM (active),0.0104 µM (active),0.288 µM (active),0.251 µM (active),68.2 µM (inactive),0.252 µM (active),0.0973 µM (active),0.665 µM (active),0.148 µM (active),0.291 µM (active),0.652 µM (active),0.132 µM (active),–,0.264 µM (active),5.3 µM (inactive),0.264 µM (active)
CCOC(=O)C(=[N+]=[N-])C(=O)CN1C(=O)C2CC(C)=C(C)CC2C1O (configuration not stated),> 100 µM (inactive),> 100 µM (inactive),> 100 µM (inactive),> 100 µM (inactive),> 100 µM (inactive),> 100 µM (inactive),> 100 µM (inactive),> 100 µM (inactive),> 100 µM (inactive),> 100 µM (inactive),> 100 µM (inactive),> 100 µM (inactive),> 100 µM (inactive),> 100 µM (inactive),> 100 µM (inactive),–,–,–,–
C=C1CCC([N+](=O)[O-])[C@](C)(N=O)CC[C@@H]2C1CC2(C)C (some centres not stated),18.5 µM (inactive),–,24.5 µM (inactive),16.1 µM (inactive),20.5 µM (inactive),22 µM (inactive),19.4 µM (inactive),22.8 µM (inactive),22.3 µM (inactive),17.9 µM (inactive),> 10 µM (inactive),15.3 µM (inactive),27.3 µM (inactive),23 µM (inactive),> 10 µM (inactive),–,34 µM (inactive),24.7 µM (inactive),57.7 µM (inactive)
